Reference: US8299046B2, “Synthetic triterpenoids and tricyclic-bis-enones for use in stimulating bone and cartilage growth” (Trustees of Dartmouth College, priority 2006, dated 2012)

How the values were obtained:
[1] = tested on: MCF-7 breast cancer cell lines; settings: Honda et al., 2003; cited from earlier work
[2] = tested on: neonatal murine calvarial bones; experiment: Neonatal murine calvarial bone formation assay; type: cell-based, ICR Swiss mice; settings: for alkaline phosphatase in the calvarial culture media: 4 and 7 days (FIGS. 2, 5, 8, 11); for cartilage formation: calvarial cultures, 7 days (FIGS. 3, 6, 9, 12); for new bone formation: calvarial organ culture, 7 days, 40, 200, 1000 nM (FIGS. 1, 4, 10)
Method: Neonatal murine calvarial bone formation assay. The technique for studying organ cultures of neonatal murine calvarial bones has been described in detail previously (Traianedes et al., 1999, Mundy et al., 1999). The bones were removed from the calvaria of 4-5 day old ICR Swiss mice, and then cultured in BGJ medium with 0.1% BSA for 7 Days using 4 calvarial bones per group triterpenoids in differing amounts were added for 7 days. Alkaline phosphatase was determined at 4 and 7 days and expressed as arbitrary units of alkaline phosphatase activity. At the end of the experiment the media was saved and assayed for the presence of alkaline phosphatase and the calvaria bones were then fixed overnight in 10% formalin, decalcified in 14% EDTA overnight and were then embedded in paraffin wax. Sections were cut, using a standard microtome, along the midline suture to reveal the sagittal suture and the region posterior to this suture. Four micrometer sections were taken initially and at two sequential […] depths. Sections were placed on coated glass slides (Superfrost plus, Fisher Scientific, Pittsburgh, Pa.) and stained with hematoxylin and eosin. The effects on bone formation were evaluated by morphologic assessment.
Imaging. Digital images across sections of the neonatal murine calvaria were taken from each group. Histomorphometric analysis was performed on these calvarial images using the Osteomeasure System (Osteometrics Inc., Atlanta, Ga.). The total and new bone area (expressed as mm^2×10^−3) was determined on all images across the calvarial section.

[3] = tested on: SZP synthesis in superficial zone articular chondrocytes; experiment: Bovine calf stifle joint SZP assay; type: cell-based; settings: for SZP synthesis at lower concentrations: 0.01 to 1 nM; for SZP synthesis at higher concentrations / SZP synthesis at higher concentrations with concurrent TGF-β1: 100-1000 nM; for SZP synthesis at higher concentrations: Day 3 culture media; for SZP synthesis at higher concentrations with concurrent TGF-β1: concurrent TGF-β1 (4 pM)
Method: Bovine calf stifle joint SZP assay. Bovine calf stifle joints were dissected under aseptic conditions. The superficial zone of articular cartilage of femoral condyles (approximately 100 μm thickness) was harvested using a dermatome. The cartilage slices were digested with 0.2% collagenase P in culture medium. Isolated chondrocytes were plated in monolayer at a density of 1×10^5 cells/well (approximately 2.5×10^4 cells/cm^2) in 12-well culture plates and incubated at 37° C. in a moist atmosphere of 5% carbon dioxide and 95% air. Chondrocytes were cultured in D-MEM/F-12 containing 10% fetal bovine serum over night, and then the media were changed in serum-free D-MEM/F-12 supplemented with ITSL (insulin, transferrin, selenious acid, and linoleic acid). Both media contain 100 U/ml penicillin, 100 μg/ml streptomycin, 50 μg/ml ascorbate-2-phosphate, and 0.1% bovine serum albumin. After changing the media with serum into the serum-free chemically defined media, various concentration of synthetic triterpenoids were added into the cell culture. As most of SZP is secreted into the culture medium, supernatants were harvested as samples and the SZP synthesis was analyzed by SDS-PAGE and Western blotting using a monoclonal antibody S6.79, obtained from Rush Medical College, Chicago, Ill. SZP accumulation into the culture medium was also quantified by ELISA using purified SZP as standard. The accumulation of SZP into the culture media increased in a time-dependent manner (Day 1<Day 2<Day 3). Therefore the culture of media of Day 3 was used for all the studies.

[4] = tested on: heme oxygenase-1; settings: Liby et al., 2005; cited from earlier work
[5] = tested on: iNOS in RAW cells; experiment: iNOS in RAW cells stimulated with interferon-γ; type: cell-based
[6] = tested on: RMPI 8226 human myeloma cells; experiment: Proliferation of RMPI 8226 myeloma cells; type: cell-based
[7] = tested on: CD11b expression in U937 cells; experiment: CD11b expression in U937 cells; type: cell-based, human
[8] = tested on: heme oxygenase-1; experiment: In vivo assay of heme oxygenase-1 induction
[9] = tested on: U937 human leukemia cells; experiment: Proliferation of U937 leukemia cells; type: cell-based
[10] = tested on: RAW cells; experiment: Inhibition of NO production in RAW cells; type: cell-based
[11] = tested on: heme oxygenase-1 in U937 cells; experiment: Heme oxygenase-1 induction in U937 cells; type: cell-based, human

Row | Molecule | alkaline phosphatase in the calvarial culture media [2] | cartilage formation [2] | SZP synthesis at lower concentrations [3] | SZP synthesis at higher concentrations [3] | SZP synthesis at higher concentrations with concurrent TGF-β1 [3] | new bone formation [2] | further results
1 | CC1(C)C(=O)C(C#N)=C[C@]2(C)C3=CC(=O)C(C#N)=C[C@]3(C)CC[C@@H]12 [(−)-TBE-9] |  |  |  |  |  |  | activity against MCF-7 cell lines [1]: active
2 | CC1(C)CC[C@]2(C(=O)n3ccnc3)CC[C@]3(C)[C@H](C(=O)C=C4[C@@]5(C)C=C(C#N)C(=O)C(C)(C)[C@@H]5CC[C@]43C)[C@@H]2C1 [TP-235] | no convincing change | No evidence of cartilage formation | no obvious effects | down-regulated SZP synthesis in a dose-dependent manner | the same trend |  | new bone formation at 40 nM ([2]; at 40 nM, 7 days (FIG. 7)): Significant increase; potency in heme oxygenase-1 induction assay (literature) [4]: highest potency amongst semi-synthetic triterpenoids
3 | CC1(C)CC[C@]2(C(=O)O)CC[C@]3(C)[C@H](C(=O)C=C4[C@@]5(C)C=C(C#N)C(=O)C(C)(C)[C@@H]5CC[C@]43C)[C@@H]2C1 [TP-151, 2-cyano-3,12-dioxooleane-1,9(11)-dien-28-oic acid] | increases | No evidence of cartilage formation | up-regulated SZP synthesis | down-regulated SZP synthesis in a dose-dependent manner | the same trend | Significant increase | 
4 | CCNC(=O)[C@]12CCC(C)(C)C[C@H]1[C@H]1C(=O)C=C3[C@@]4(C)C=C(C#N)C(=O)C(C)(C)[C@@H]4CC[C@@]3(C)[C@]1(C)CC2 [TP-319] | dose responsive increases | clear evidence increases in cartilage formation | no obvious effects | down-regulated SZP synthesis in a dose-dependent manner | the same trend | Some increases | 
5 | COC(=O)[C@]12CCC(C)(C)C[C@H]1[C@H]1C(=O)C=C3[C@@]4(C)C=C(C#N)C(=O)C(C)(C)[C@@H]4CC[C@@]3(C)[C@]1(C)CC2 [TP-155] | increases | Some evidence of cartilage formation was seen in these cultures (FIG. 3) however this was not significant | up-regulated SZP synthesis | down-regulated SZP synthesis in a dose-dependent manner | the same trend | Significant increase | 
6 | TGF-β1: Recombinant human TGF-β1 |  |  |  |  |  |  | SZP synthesis (TGF-β1) ([3]; 0.4-120 pM): up-regulate SZP synthesis in a dose-dependent manner
7 | CC1(C)C(=O)C(C#N)=CC2(C)C3=CC(=O)C(C#N)=C(C#C[Si](C)(C)C)C3CCC12 (racemic) [TBE-31] |  |  |  |  |  |  | iNOS in RAW cells [5]: inhibits iNOS; proliferation of RMPI 8226 human myeloma cells [6]: inhibits proliferation; CD11b expression in U937 cells [7]: induces CD11b expression; potency for CD11b induction compared with CDDO and CDDO-Im ([7]; comparison): much higher than CDDO and CDDO-Im; potency in heme oxygenase-1 induction compared with CDDO and CDDO-Im ([8]; comparison): much higher than CDDO and equal to CDDO-Im; in vivo heme oxygenase-1 induction ([8]; oral): orally active; proliferation of U937 human leukemia cells [9]: inhibits proliferation; potency for inhibition of NO production in RAW cells [10]: extremely potent at one nanomolar concentrations; potency for NO inhibition in RAW cells compared with CDDO and TP-225 ([10]; comparison): much higher than CDDO and equal to TP-225; induction of heme oxygenase-1 in U937 cells [11]: potent inducer
